In patent publication US10857105B2, “Compounds and compositions for intracellular delivery of therapeutic agents” (ModernaTX, Inc., priority 2017, dated 2020):

Experiments:
[1] = Particle size and polydispersity index of nanoparticle compositions (Zetasizer Nano ZS); type: physicochemical; conditions: Table 1A; lipid:DSPC:cholesterol:PEG-DMG 50:10:38.5:1.5 mol %
In short: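 Formulations of ionizable lipid, DSPC, cholesterol and PEG-DMG (50:10:38.5:1.5 mol %) carrying Luc or hEPO mRNA with all uridines as N1-methyl pseudouridine. Dynamic light scattering in 1×PBS gave particle size and polydispersity; zeta potential read in 15 mM PBS.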

[2] = Encapsulation efficiency of RNA in nanoparticle compositions (RIBOGREEN assay); type: physicochemical; conditions: Table 1A; lipid:DSPC:cholesterol:PEG-DMG 50:10:38.5:1.5 mol %
In short: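 Lipid nanoparticles (ionisable lipid:DSPC:cholesterol:PEG-DMG 50:10:38.5:1.5 mol %) carrying N1-methylpseudouridine luciferase or hEPO mRNA diluted to about 5 μg/mL in TE, pH 7.5, with or without 2% Triton X-100, 15 min at 37° C. RiboGreen fluorescence (ex ~480, em ~520 nm) blank-subtracted; free RNA = intact/disrupted signal.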

modified luciferase = assay: Luciferase expression in liver, lung, spleen and femur 6 hours after intravenous administration to mice; type: in vivo; conditions: 6 hours after intravenous 0.5 mpk, mice
In short: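 Mice (n=3) got a single 0.5 mpk IV dose of each nanoparticle composition, with MC3 and PBS controls alongside. Organ luminescence flux was read 6 h post-dose.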

IL-6, IP-10 = assay: Cytokine induction (IL-6, IP-10) in mice 6 hours after intravenous administration; type: in vivo; set-up: unit not given here; conditions: intravenous 0.5 mpk
From the text: The introduction of foreign material into a mammalian body induces an innate immune response that promotes cytokine production. Such immune responses to, for example, nanoparticle compositions including therapeutic and/or prophylactics, are undesirable. The induction of certain cytokines is thus measured to evaluate the […] of nanoparticle compositions. The concentrations of various cytokines in mice upon intravenous administration of nanoparticle compositions presented in Table 1A at a dosage of 0.5 mpk was measured at 6 hours. The standard MC3 formulation and a PBS control were also tested. As is evident in Table 7, IL-6 induction was highest for compositions including Compounds 1, 3, 9, 19, and 26, while IP-10 induction was highest for compositions including Compounds 3, 4, 7, 20, and 26. IL-6 induction was lowest for compositions including Compounds 4, 11, 12, and 28. IP-10 induction was lowest for compositions including Compounds 10, 11, 12, 13, 15, 17, and 18.

Row | Size [1] | EE [2] | Cytokine induction, IL-6 (IL-6, IP-10) | Cytokine induction, IP-10 (IL-6, IP-10) | Compound | Total Flux, Liver (modified luciferase) | Total Flux, Lung (modified luciferase) | Total Flux, Spleen (modified luciferase) | Total Flux, Femur (modified luciferase)
1 | 116.7 nm | 92.44% | 3.88 | 32.03 | CCCCCCCCCOC(=O)CCCCCCCN(CCCCCCCC(=O)OC(CCCCCCCC)CCCCCCCC)C[C@H](C)O [Compound 12, Heptadecan-9-yl (S)-8-((2-hydroxypropyl)(8-(nonyloxy)-8-oxooctyl)amino)octanoate] | 6.84E+08 | 7.45E+06 | 6.82E+07 | 
2 | 120.3 nm | 89.2% | 282.82 | 187.83 | CCCCCCCC/C=C\COC(=O)CCCCCN(CCO)CCCCCC(=O)OC/C=C\CCCCCCCC [Compound 140, Di((Z)-undec-2-en-1-yl) 6,6′-((2-hydroxyethyl)azanediyl)dihexanoate] | 4.21E+05 | 2.14E+04 | 2.22E+05 | 3.26E+04
3 |  | 78.2% | 23.57 | 153.36 | CCCCCC/C=C\COC(=O)CCCCCCCN(CCO)CCCCCCCC(=O)OC/C=C\CCCCCC [Compound 139, Di((Z)-non-2-en-1-yl) 8,8′-((2-hydroxyethyl)azanediyl)dioctanoate] | 8.27E+05 | 5.26E+04 | 2.10E+06 | 5.12E+04
4 | 119.0 nm | 91.32% | 32.01 | 206.75 | CCCCCCCCCOC(=O)CCCCCCCN(CCCCCCCC(=O)OC(CCCCCCCC)CCCCCCCC)CCCOC [Compound 16, Heptadecan-9-yl 8-((3-methoxypropyl)(8-(nonyloxy)-8-oxooctyl)amino) octanoate] | 3.17E+07 | 4.18E+05 | 5.43E+06 | 2.55E+05
5 | 79.4 nm | 92.28% | 29.07 | 126.29 | CCCCCCCCCOC(=O)CCCCCCCN(CCCCCCCC(=O)OC(CCCCCCCC)CCCCCCCC)CC(O)CC (centres unmarked) [Compound 13, Heptadecan-9-yl 8-((2-hydroxybutyl)(8-(nonyloxy)-8-oxooctyl)amino) octanoate] | 2.25E+07 | 2.21E+05 | 7.09E+05 | 1.35E+05
6 | 129.6 nm | 92.47% | 0.14 | 44.84 | CCCCCCCCCOC(=O)CCCCCCCN(CCCCCCCC(=O)OC(CCCCCCCC)CCCCCCCC)C[C@@H](C)O [Compound 11, Heptadecan-9-yl (R)-8-((2-hydroxypropyl)(8-(nonyloxy)-8-oxooctyl)amino)octanoate] | 8.03E+08 | 1.35E+07 | 1.04E+08 | 
7 | 72.7 nm |  | 267.24 | 687.14 | CCCCCCCCCCCCCCCCCCN(CCO)CCCCCCCC(=O)OC(CCCCCCCC)CCCCCCCC [Compound 1, Heptadecan-9-yl 8-((2-hydroxyethyl)(octadecyl)amino)octanoate] | 4.02E+08 | 1.72E+06 | 4.27E+06 | 7.52E+05
8 | 135.9 nm | 90.3% | 319.46 | 4220.55 | CCCCCCCCCOC(=O)CCCCCCCN(CCO)CCCCCCCC(=O)N(CCCCCCCC)CCCCCCCC [Compound 144, Nonyl 8-((8-(dioctylamino)-8-oxooctyl)(2-hydroxyethyl)amino)octanoate] | 3.75E+08 | 4.81E+06 | 5.11E+07 | 2.44E+06
9 | 99.4 nm |  | 17.47 | 283.13 | CCCCCCCCC(CCCCCCCC)OC(=O)CCCCCCCN(CCO)CCCCCCCC(=O)OCC1CC1CCCCCC (centres unmarked) [Compound 28, Heptadecan-9-yl 8-((8-((2-hexylcyclopropyl)methoxy)-8-oxooctyl)(2-hydroxyethyl)amino)octanoate] | 1.22E+10 | 2.17E+08 | 1.80E+08 | 
10 | 83.9 nm | 93.88% | 70.95 | 468.86 | CCCCCCCCCCCCCCN(CCO)CCCCCCCC(=O)OC(CCCCCCCC)CCCCCCCC [Compound 2, Heptadecan-9-yl 8-((2-hydroxyethyl)(tetradecyl)amino)octanoate] | 4.87E+09 | 2.52E+07 | 5.77E+07 | 3.86E+06
11 | 80.2 nm | 96.00% | 90.54 | 976.50 | CCCCCCCCCOC(=O)CCCCCCCN(CCCCCCCC(=O)OC(CCCCCCCC)CCCCCCCC)C1CCCCC1O (centres unmarked) [Compound 22, Heptadecan-9-yl 8-((2-hydroxycyclohexyl)(8-(nonyloxy)-8-oxooctyl)amino)octanoate] | 4.00E+07 | 4.73E+05 | 1.57E+06 | 1.16E+05
12 | 91.3 nm | 94.1% | 327.15 | 1072.04 | CCCCCCCCCCCOC(=O)CCCCCN(CCO)CCCCCC(=O)OCCCCCCCCCCC [Compound 141, Diundecyl 6,6′-((2-hydroxyethyl)azanediyl)dihexanoate] | 1.59E+05 | 3.85E+04 | 6.29E+04 | 2.86E+04
13 | 102.9 nm | 89.60% | 88.81 | 138.16 | CCCCCCCCCOC(=O)CCCCCCCN(CCCCCCCC(=O)OC(CCCCCCCC)CCCCCCCC)CC(C)O (centres unmarked) [Compound 10, Heptadecan-9-yl 8-((2-hydroxypropyl)(8-(nonyloxy)-8-oxooctyl)amino) octanoate] | 3.22E+08 | 8.85E+05 | 8.17E+06 | 5.09E+05
14 |  | 77.07% | 94.07 | 487.16 | CCCCCCCCC(CCCCCCCC)OC(=O)CCCCCCCN(CCO)CCCCCC [Compound 5, Heptadecan-9-yl 8-(hexyl(2-hydroxyethyl)amino)octanoate] | 5.84E+07 | 1.89E+06 | 1.55E+08 | 1.22E+06
15 | 111.1 nm | 92.47% | 64.65 | 184.30 | CCCCCCCCCOC(=O)CCCCCCCN(CCCCCCCC(=O)OC(CCCCCCCC)CCCCCCCC)CCOC [Compound 15, Heptadecan-9-yl 8-((2-methoxyethyl)(8-(nonyloxy)-8-oxooctyl)amino)octanoate] | 6.23E+06 | 6.41E+04 | 9.01E+05 | 5.93E+04
16 | 120.5 nm | 95.10% | 13.1375 | 2253.09 | CCCCCCCCC(CCCCCCCC)OC(=O)CCCCCCCN(CCO)CCCCCCCC [Compound 4, Heptadecan-9-yl 8-((2-hydroxyethyl)(octyl)amino)octanoate] | 5.26E+09 | 6.22E+07 | 4.09E+08 | 

Row | Compound | Size [1] | EE [2] | Cytokine induction, IL-6 (IL-6, IP-10) | Cytokine induction, IP-10 (IL-6, IP-10) | Total Flux, Liver (modified luciferase) | Total Flux, Lung (modified luciferase) | Total Flux, Spleen (modified luciferase) | Total Flux, Femur (modified luciferase)
17 | CCCCCCCCCOC(=O)CCCCCCCN(CCCCCCCC(=O)OC(CCCCCCCC)CCCCCCCC)CCOC(C)=O [Compound 9, Heptadecan-9-yl 8-((2-acetoxyethyl)(8-(nonyloxy)-8-oxooctyl)amino) octanoate] | 68.5 nm | 75.7% | 317.45 | 366.53 | 4.30E+05 | 2.56E+04 | 5.51E+04 | 2.57E+04
